The test system of one data set is CEM cells. Put plainly: Inhibition of CEM cell growth (cytostatic activity). The format is cell-based. As to the method: (§1) Cytostatic and antimetabolic effect of acyclic nucleoside phosphonates in vitro. The assays to examine the inhibition of CEM cell growth by the test compounds have been described previously (Balzarini et al., AIDS 5:21-28, 1991). The 50% cytostatic concentration (CC50) was defined as the concentration of compound that reduced the number of living cells by 50% . To measure MT-4 cell toxicity of the test compounds, 5×10^4 MT-4 cells were incubated in the wells of 96-well microplates in the presence or absence of different concentrations of the test compounds for 5 days at 37° C. The CC50 was then calculated from the number of living cells counted under a microscope by the trypan blue exclusion method.

The test system of data set [1] is HIV-1(IIIB). Put plainly: HIV-1(IIIB)-induced cytopathicity in CEM cell cultures. Format: cell-based. The text has this:
(§2) Viruses. The origins of MSV, HIV type 1 (HIV-1) (strain IIIB and Ba-L), HIV-2 (strain ROD) and FIV (strain Petaluma) have been described previously (Balzarini et al., AIDS 5: 21-28, 1991; De Clercq et al., Proc. Soc. Exp. Biol. Med. 137:590-594, 1971; Egberink et al., Proc. Natl. Acad. Sci. 87:3087-3091, 1990; Hartmann et al., Antiviral Chem. Chemother. 5:13-19, 1994; Popovic et al., Science 224:497-500, 1984). HIV-1(IIIB) and HIV-2(ROD) stocks were obtained from supernatants of virus-infected MT-4 cell cultures. HIV-1BaL was expanded in human primary M/M, whose supernatants were collected, filtered and stored at −80° C. before use. Characteristics of viral stocks used for this study were 2.1×10^8 HIV-RNA genomes/ml (corresponding to 35 ng of p24 antigen) and 5,000 tissue culture infectious doses 50% per ml (TCID50/ml) as assessed by virus titration in other primary M/M cultures. The isolation and characterization of the clinical HIV-1 isolates L1S, L6S and L6S/PMEA has been reported (Thormar et al., Proc. Natl. Acad. Sci. USA 93:3283-3287, 1995; Van Laethem et al., AIDS 15:553-561, 2001). […] HIV-1/L6S/PMEA is the clinical isolate HIV-1/L6S that has been isolated after culturing the virus for 11 passages in the presence of increasing concentrations of PMEA (adefovir).
(§3) In vitro antiviral assays. The activity against HIV-1- and HIV-2-induced cytopathicity was examined in MT-4 cell cultures at day 5 post infection and based on the determination of cell viability by trypan blue dye staining or in CEM cell cultures at day 4 to 5 post infection and based on the microscopical examination of virus-induced giant cell formation. HIV-1 and HIV-2 were added at 100 CCID50 to the cell cultures.
A general note: Damage to the host cells serves as the signal in cytopathic effect assays.

The subject of data set [2] is HIV-1(IIIB). Put plainly: HIV-1(IIIB)-induced cytopathicity in MT-4 cell cultures. Format: cell-based. The note with it: Human immunodeficiency virus 1, IIIB, MT4; Table 2.
From the text: as §2, §3

A short description of data set [3]: Alteration of C3H cell morphology (minimal inhibitory concentration). Format: cell-based, murine. The note with it: mouse, C3H/3T3 embryo fibroblast cells; microscopically visible alteration of cell morphology; > means no visible toxicity at the indicated concentration; read-out: CC50 C3H (minimal inhibitory concentration).
In data set [4] the test system is HIV-2(ROD). Kind of data set: HIV-2(ROD)-induced cytopathicity in MT-4 cell cultures. The format is cell-based. To be noted: Human immunodeficiency virus 2, MT4, read-out: EC50 HIV-2 (ROD) (MT-4).
From the text: as §2, §3

The subject of data set [5] is HIV-2(ROD). Kind of data set: HIV-2(ROD)-induced cytopathicity in CEM cell cultures. The format is cell-based. To be noted: Human immunodeficiency virus 2, CCRF-CEM, read-out: EC50 HIV-2 (ROD) (CEM).
From the text: as §2, §3

Data set [6] in a line: Inhibition of CEM cell growth (cytostatic activity). The format is cell-based. The note with it: human, CEM cells. Here is the method: as §1
Data set [7] in a line: MT-4 cell toxicity (trypan blue exclusion). Format: cell-based. The note with it: human, MT-4 cells; reduction of cell viability; Table 2. Here is the method: as §1
In data set [8] the test system is MSV. Kind of data set: MSV-induced transformation of murine embryo fibroblast C3H/3T3 cell cultures. The format is cell-based. The note with it: Mus musculus. Here is the method: The inhibitory effect of the test compounds on MSV-induced transformation of murine embryo fibroblast C3H/3T3 cell cultures was examined microscopically at day 6 post infection. MSV was added at 75 focus-forming units to the cell cultures. The detailed procedures for the antiretroviral evaluations has been described in detail before (Balzarini et al., AIDS 5:21-28, 1991; Balzarini et al., Antimicrob. Agents Chemother. 37:332-338, 1993; De Clercq et al., Proc. Soc. Exp. Biol. Med. 137:590-594, 1971).

For another data set, the system named is HSV-1 TK- VMW 1837. Kind of data set: Antiviral activity, HSV-1 TK- VMW 1837, Table 1a. The format is cell-based.
A further data set has as its system CMV AD-169. Put plainly: Antiviral activity, CMV AD-169, Table 1a. The format is cell-based.
The subject of a further data set is VZV TK + OKA. Put plainly: Antiviral activity, VZV TK+ OKA, Table 1a. The format is cell-based.
Data set [9] deals with HIV-1.
The test system of data set [10] is MSV. Put plainly: Antiviral activity, MSV, Table 1a. The format is cell-based.
For the next data set, the system named is VZV TK − 07/1. Kind of data set: Antiviral activity, VZV TK- 07/1, Table 1a. Format: cell-based.
A further data set deals with VZV TK − YS/R. Kind of data set: Antiviral activity, VZV TK- YS/R, Table 1a. The format is cell-based.
The next data set deals with HSV-1 (KOS). Put plainly: Antiviral activity, HSV-1 (KOS), Table 1a. The format is cell-based.
The test system of the next data set is HIV-2. Kind of data set: Antiviral activity, HIV-2, Table 1a. The format is cell-based.
The next data set relates to HSV-2 (G). Kind of data set: Antiviral activity, HSV-2 (G), Table 1a. The format is cell-based.
A further data set concerns CMV Davis. Kind of data set: Antiviral activity, CMV Davis, Table 1a. The format is cell-based.
The next data set deals with VZV TK + YS. Put plainly: Antiviral activity, VZV TK+ YS, Table 1a. Format: cell-based.
Data set [11] deals with HIV-1. Put plainly: microbe, parasite or virus in culture. The note with it: Human immunodeficiency virus 1, read-out: Antiviral Activity EC50 HIV-1.

This note sets out measurements from patent publication US20050038058A1, “Novel compounds and methods for therapy” (Institute of Organic Chemistry and Biochemistry, priority 2001, published 2005).

Each structure is given as a SMILES string. Values after ≈ are worked out from the molar mass of the structure shown. Like-named read-outs stand apart in the source and are kept apart here. Bounds are passed on as bounds.

The melting point is the temperature, or range, at which the solid turns liquid. In turn, `Nc1nc(N)c(Br)c(OCCOCP(=O)(O)O)n1` [5-bromo-derivative of 1, 2,4-Diamino-5-bromo-6-[2-(phosphonomethoxy)ethoxy]pyrimidine] displayed a melting point of 218 °C. In addition, the “Cytotoxicity at 100 μg/mL” value with CEM cells (100 μg/mL) is reported as “not toxic”. In addition, the “Concentration at which active against HIV-1 in CEM cell cultures” value in the data set with HIV-1(IIIB) [1] was found to be 2.5 µg/mL.

A word on the CC50: it is the concentration that lowers cell viability or growth by half. Take `Nc1nc(O)cc(OCCOCP(=O)(O)O)n1` [Compound 4, 2-amino-4-hydroxy-6-[2-(phosphonomethoxy)ethoxy]pyrimidine]: the EC50 was 1.9 ± 0.4 µg/mL (≈ 7.17 µM) in the data set with HIV-1(IIIB) [2]; 2.1 µg/mL (≈ 7.92 µM) with HIV-2(ROD) [4]; 1.4 ± 1.2 µg/mL (≈ 5.28 µM) in the data set on HIV-2(ROD) [5]; 1.4 ± 0.71 µg/mL (≈ 5.28 µM) with HIV-1(IIIB) [1] (Human immunodeficiency virus 1, CCRF-CEM, HIV-1 (IIIB) in CEM, no addition, Table 3, read-out: EC50 as such); 1.7 ± 1.2 µg/mL (≈ 6.41 µM) in the data set on HIV-1(IIIB) [1] (Human immunodeficiency virus 1, CCRF-CEM, HIV-1 (IIIB) in CEM, Ade 100 μM, read-out: EC50 upon addition of Ade (100 μM)); 1.4 ± 0.93 µg/mL (≈ 5.28 µM) with HIV-1(IIIB) [1] (Human immunodeficiency virus 1, CCRF-CEM, HIV-1 (IIIB) in CEM, Ado 400 μM, read-out: EC50 upon addition of Ado (400 μM)). Further, the EC50 was 1.9 ± 0.92 µg/mL (≈ 7.17 µM) with HIV-1(IIIB) [1] (Human immunodeficiency virus 1, CCRF-CEM, HIV-1 (IIIB) in CEM, Guo 10 μM, read-out: EC50 upon addition of Guo (10 μM)); 2.4 ± 1.9 µg/mL (≈ 9.05 µM) in the data set with HIV-1(IIIB) [1] (Human immunodeficiency virus 1, CCRF-CEM, HIV-1 (IIIB) in CEM, dCyd 1 mM, read-out: EC50 upon addition of dCyd (1 mM)); 1 ± 0.3 µg/mL (≈ 3.77 µM) in the data set with HIV-1(IIIB) [1] (Human immunodeficiency virus 1, CCRF-CEM, HIV-1 (IIIB) in CEM, dThd 10 μM, read-out: EC50 upon addition of dThd (10 μM)); 2.2 µg/mL (≈ 8.3 µM) with HIV-1(IIIB) [1] (Human immunodeficiency virus 1, CCRF-CEM, HIV-1(IIIB)-induced cytopathicity in CEM cell cultures, Table 1, read-out: EC50 HIV-1 (CEM)); 1.4 ± 0.7 µg/mL (≈ 5.28 µM) in the data set with HIV-1(IIIB) [1] (Human immunodeficiency virus 1, IIIB, CCRF-CEM, giant cell formation, mean ±SD of 2 to 4 experiments, Table 2, read-out: EC50 HIV-1 (IIIB) (CEM)); 0.05 to 0.15 µg/mL (≈ 0.189 to 0.566 µM) with MSV [8] (C3H, read-out: EC50 against MSV-induced C3H cell transformation). Moreover, in the data set on MSV [8] (MSV-induced C3H cell transformation, Table 2, read-out: EC50 MSV (C3H)), the EC50 is 0.08 ± 0.03 µg/mL (≈ 0.302 µM). For the same compound, in data set [3], the Minimal concentration causing visible cell morphology alteration is at least 16 µg/mL. Besides, the CC50 worked out at 2.5 µg/mL (≈ 9.43 µM) in data set [6] (50% cytostatic concentration, CEM cell proliferation, Table 1, read-out: CC50 (CEM)); 2.5 ± 0.2 µg/mL (≈ 9.43 µM) in data set [6] (inhibition of cell proliferation, Table 2, read-out: CC50 CEM); 2.5 µg/mL (≈ 9.43 µM) in [6] (read-out: CC50 for CEM cells). This compound came in with a half-maximal cytotoxic concentration (CC50) at 5 days in data set [7] of 10 ± 2.2 µg/mL (≈ 37.7 µM).

Regarding `C[C@@H](COc1cc(N)nc(N)n1)OCP(=O)(O)O` [Compound 10, 2,4-diamino-6-(S)-[2-(phosphonome-thoxy)propoxy]pyrimidine], the “Antiviral Activity EC50 HSV-1 TK- VMW 1837” value with HSV-1 TK- VMW 1837 is above 80 µg/mL. Further, the “Antiviral Activity EC50 CMV AD-169” value with CMV AD-169 is above 50 µg/mL. Besides, in the data set with VZV TK + OKA, the “Antiviral Activity EC50 VZV TK + OKA” value was above 50 µg/mL. In addition, in the data set on HIV-1 [9], the “Antiviral Activity EC50 HIV-1” value stood at 51 µg/mL. In the data set with MSV [10], the “Antiviral Activity EC50 MSV” value was determined as 6.1 µg/mL. Further, in the data set on VZV TK − 07/1, the “Antiviral Activity EC50 VZV TK − 07/1” value was above 50 µg/mL. In addition, the “CC50 (CEM)” value in the data set with CEM cells (50% cytostatic concentration, CEM cell proliferation, Table 1) was above 100 µg/mL. Moreover, in the data set with HIV-1(IIIB) [1] (HIV-1(IIIB)-induced cytopathicity in CEM cell cultures, Table 1), the “EC50 HIV-1 (CEM)” value is 51 µg/mL (≈ 183 µM). For the same compound, the “Antiviral Activity EC50 VZV TK − YS/R” value with VZV TK − YS/R was above 50 µg/mL. The “Antiviral Activity EC50 HSV-1 (KOS)” value in the data set on HSV-1 (KOS) is above 80 µg/mL. Besides, the “Antiviral Activity EC50 HIV-2” value in the data set with HIV-2 is 33 µg/mL. Moreover, the “Antiviral Activity EC50 HSV-2 (G)” value with HSV-2 (G) is above 80 µg/mL. Moreover, the “Antiviral Activity EC50 CMV Davis” value with CMV Davis is above 50 µg/mL. The “Antiviral Activity EC50 VZV TK + YS” value in the data set on VZV TK + YS was above 50 µg/mL.

For the compound `Cc1cc(OCCOCP(=O)(O)O)nc(N)n1` [Compound H-3453], the EC50 with HSV-1 TK- VMW 1837 (Human alphaherpesvirus 1, read-out: Antiviral Activity EC50 HSV-1 TK- VMW 1837) is above 400 µg/mL; with CMV AD-169 (Human betaherpesvirus 5, AD169), above 50 µg/mL; in the data set on VZV TK + OKA (Human alphaherpesvirus 3, read-out: Antiviral Activity EC50 VZV TK + OKA) it was above 50 µg/mL; with HIV-1 [11], above 100 µg/mL; in the data set on MSV [10], 89.4 ± 37.6 µg/mL (≈ 340 µM); in the data set with VZV TK − 07/1 (Human alphaherpesvirus 3, read-out: Antiviral Activity EC50 VZV TK − 07/1) it was above 50 µg/mL. Moreover, the EC50 in the data set with VZV TK − YS/R (Human alphaherpesvirus 3, read-out: Antiviral Activity EC50 VZV TK − YS/R) was above 50 µg/mL; with HSV-1 (KOS) (Human alphaherpesvirus 1) it was above 400 µg/mL; in the data set with HIV-2 (Human immunodeficiency virus 2), above 100 µg/mL; in the data set with HSV-2 (G) (Human alphaherpesvirus 2) it was above 400 µg/mL; with CMV Davis (Human betaherpesvirus 5), above 50 µg/mL; in the data set with VZV TK + YS (Human alphaherpesvirus 3), above 50 µg/mL.

The compound `Nc1nc(OCCOCP(=O)(O)O)cc(OCCOCP(=O)(O)O)n1` [Example 10, 2-Amino-4,6-bis[2-(phosphonomethoxy)ethoxy]pyrimidine] displayed a melting point of 108 °C.
